Values joined by “and” are separate entries in the source; they are usually repeats but may differ in a detail not shown here. Identical values can stand only once.
Legend:
[1] = test system: Panc-1 and MiaPaca-2 cells; assay: 3D cell spheroid formation and viability; format: cell-based, human
Experimental: 3D) cell spheroid formation studies: Pancreatic cancer cells were cultured in the ultra-low attachment plates in the pancreatic cancer organoid culture medium. In some studies, to observe the spheroid formation, DDX5 KO pancreatic cancer cells in the presence and absence of Agrin at a concentration of 2.5 μg/mL, 5 μg/mL and/or 10 μg/mL for 6-7 days were cultured. […] Representative images were take during this time and cell viability was determined by MTT assay.

[2] = Liver microsome stability; conditions: for microsomal CLint at 0.5 μM / half-life at 0.5 μM: both; for microsomal CLint at 0.5 μM: CLint (intrinsic clearance); for microsomal CLint at 0.5 μM / half-life at 0.5 μM / % Remaining of Initial (n = 1): human liver microsome
[3] = test system: L5178Y TK+/− mouse lymphoma cells; assay: Mouse Lymphoma Assay (MLA); conditions: for Avg. ACE / Avg. MF / Avg. RTG / Avg. SG: 4 h summary
Experimental: The cells were prepared in Fischer's or RPMI media supplemented with 10% heat-inactivated horse serum, penicillin-streptomycin, Lglutamine, sodium pyruvate and Pluronic F68. In the initial assay, prior to use in the test, the culture was purged of preexisting TK−/− mutations by exposure to THMG treated medium for 1 day, followed by a transfer to THG medium for 1 to 2 days. This was performed 5 to 8 days prior to testing. In the expanded assay a vial of frozen cells was thawed and used within 5 to 8 days of growth. No washing was needed because the cells were purged of preexisting TK−/− mutations by exposure to THMG treated medium for 1 day and then THG medium for 1 day prior to freezing. […] Colonies were counted using an automated colony counter or manually. After 4 or 24 hours of exposure, the cells were grown for recovery and expression for approximately 48 hours before plated in TFT cloning media. A second set of plates were prepared without TFT to assess viability of cells following treatment. […] Colonies observed on the TFT plate were defined as small or large colonies. […] (3) Of note, the metabolic activation system in this assay consisted of a rat liver homogenate (S-9 microsomal fraction), which was delivered to the test system in the presence of a core mix consisting of NADP and cofactors for NADPH-supported oxidation. The S9 was prepared using the following recipe (per treatment tube); 1 mL of 20 mg/mL S9, 32 mg of NADP, 60 mg of isocitric acid, 40 μL of calcium chloride (CaCl2) and 3.0 mL of cell cultural media. All treatments were performed in duplicate. The treatment tubes were placed in a CO2 incubator at 37±1° C. with continuous agitation.

ABCG2/BCRP = target: T1, ABCG2/BCRP (Homo sapiens, UniProt Q9UNQ0); conditions: Caco-2; without and with Ko143
T1 sequence (Q9UNQ0 1-655): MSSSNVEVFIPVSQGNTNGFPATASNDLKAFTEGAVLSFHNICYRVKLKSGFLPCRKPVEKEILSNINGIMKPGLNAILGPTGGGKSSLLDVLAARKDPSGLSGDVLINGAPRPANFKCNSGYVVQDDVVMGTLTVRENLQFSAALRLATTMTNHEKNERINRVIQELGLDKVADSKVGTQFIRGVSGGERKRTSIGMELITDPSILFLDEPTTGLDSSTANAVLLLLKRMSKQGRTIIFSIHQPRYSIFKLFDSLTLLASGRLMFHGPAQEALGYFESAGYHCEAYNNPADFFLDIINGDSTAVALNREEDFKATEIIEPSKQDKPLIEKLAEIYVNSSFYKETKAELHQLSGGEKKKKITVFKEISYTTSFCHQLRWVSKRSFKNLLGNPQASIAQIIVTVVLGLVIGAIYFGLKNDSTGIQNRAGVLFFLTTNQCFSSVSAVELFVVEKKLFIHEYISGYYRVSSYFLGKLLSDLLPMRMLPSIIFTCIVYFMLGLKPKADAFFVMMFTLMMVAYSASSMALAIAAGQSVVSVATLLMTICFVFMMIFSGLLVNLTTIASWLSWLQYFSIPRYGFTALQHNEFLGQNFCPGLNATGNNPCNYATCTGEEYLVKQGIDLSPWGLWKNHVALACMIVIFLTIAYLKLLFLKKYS

in vivo = conditions: SCID, mouse, po

Q: What does the source list for `CCC1(O)C(=O)OCc2c1cc1n(c2=O)Cc2cc3cc4c(cc3nc2-1)OCO4` (stereo not shown) [FL118]?
A: 3D spheroid formation [1]: inhibited; cell viability in 3D culture [1]: inhibited in a FL118 concentration-dependent manner; microsomal CLint at 0.5 μM ([2]; human, microsomes, calculated (in parentheses)): 18.6 µL/min/mg; microsomal CLint at 0.5 μM ([2]; human, microsomes, bound): < 23.1 µL/min/mg; half-life at 0.5 μM ([2]; human, microsomes, calculated (in parentheses), calculated half-life longer than the experiment): 1.25 h; half-life at 0.5 μM ([2]; human, microsomes, expressed as > the longest incubation time (60 min)): > 1 h; % Remaining of Initial (n = 1) ([2]; 0 min): 100%; % Remaining of Initial (n = 1) ([2]; 10 min): 93%; % Remaining of Initial (n = 1) ([2]; 20 min): 82%; % Remaining of Initial (n = 1) ([2]; 30 min): 76%; % Remaining of Initial (n = 1) ([2]; 60 min): 58%; half-life ([2]; human, microsomes): long half-life; concentrations considered unable to induce mutation ([3]; 4-hour +S9): ≤ 320 nM; concentrations considered positive (mutagenic/clastogenic) ([3]; 4-hour -S9): > 100 nM; concentrations considered unable to induce mutation ([3]; 4-hour -S9): ≤ 32 nM; Average SG ([3]; 4 h, +S9, 0.1 uM): 12.9; Day 1 Growth Cell Conc. ([3]; 4 h, +S9, 0.1 uM): 6.71E+05 Cell/mL and 7.82E+05 Cell/mL; Day 2 Growth Cell Conc. ([3]; 4 h, +S9, 0.1 uM): 1.55E+06 Cell/mL and 1.64E+06 Cell/mL; Suspension Growth (SG) ([3]; 4 h, +S9, 0.1 uM): 11.4 and 14.3; Average SG ([3]; 4 h, +S9, 1 uM): 10.7; Day 1 Growth Cell Conc. ([3]; 4 h, +S9, 1 uM): 7.55E+05 Cell/mL and 6.56E+05 Cell/mL; Day 2 Growth Cell Conc. ([3]; 4 h, +S9, 1 uM): 1.27E+06 Cell/mL and 1.45E+06 Cell/mL; Suspension Growth (SG) ([3]; 4 h, +S9, 1 uM): 10.5 and 10.8; concentrations considered positive (mutagenic/clastogenic) ([3]; 4 hour +S9): > 1000 nM; Avg. ACE ([3]; +S9, 0.1 uM): 82.5%; Avg. MF ([3]; +S9, 0.1 uM): 71 ×10^−6; Avg. RTG ([3]; +S9, 0.1 uM): 98.8%; Avg. SG ([3]; +S9, 0.1 uM): 12.9; Avg. ACE ([3]; +S9, 1 uM): 62.3%; Avg. MF ([3]; +S9, 1 uM): 231 ×10^−6; Avg. RTG ([3]; +S9, 1 uM): 81.5%; Avg. SG ([3]; +S9, 1 uM): 10.7; Average SG ([3]; 24 h, 0.001 uM): 66.2; Suspension Growth (SG) ([3]; 24 h, 0.001 uM): 55.8 and 65.5; Average SG ([3]; 24 h, 0.1 uM): 29.1; Suspension Growth (SG) ([3]; 24 h, 0.1 uM): 29.0 and 29.1; concentrations considered positive (mutagenic/clastogenic) ([3]; 24 hour -S9): ≥ 100 nM; concentrations considered unable to induce mutation ([3]; 24 hour -S9): ≤ 32 nM; BCRP Substrate Classification (ABCG2/BCRP): Negative (ER≥2.0 without Ko143, and reduced by <50% with Ko143: Negative); MTD at 4 weekly doses (in vivo): ~10 mg/kg

— US20250312469A1 (CANGET BIOTEKPHARMA, priority 2024, published 2025)
